Entries after “also recorded” stand apart in the source; their conditions may differ. No end group written: not given here.
Tests used:
CD206 in lung tissue = test: IHC staining of CD206 in lungs of BLM-treated mice; format: in vivo, mouse; details: n=3 mice; vs naïve
Procedure: At the end of the study, the mice were sacrificed using CO2 followed by cervical dislocation (according to IACUC guidelines), and the lungs were collected and fixed in 10% formalin. After 48 h of fixation, the lungs were processed into tissue sections. The tissue sections were stained with both Hematoxylin/Eosin (H&E) (Sigma Aldrich, Burlington, MA, USA) and Masson Trichrome (Abcam, Waltham, MA, USA). Immunostaining was performed with the anti-CD206 (AF2535, 5 ug/mL, R&D Biosciences), TGF-β1 (MAB1835, 10 ug/mL, R&D Biosciences), and α-SMA (MAB1420, 10 ug/mL, R&D Biosciences, Minneapolis, MN, USA) antibodies as previously described. All slides were scanned using a Leica Aperio SC2 scanner and blindly evaluated by two independent pathologists. A total of 10 representative fields of 20× IHC images per tissue section were individually analyzed for the total number of cells/area using a confocal microscope (Olympus, New York, NY, USA). All quantitative data were normalized to appropriate control images.
We first sought to perform in silico validation of CD206 expression at various time points in both bleomycin-treated rat (GSE48455) and mouse models (GSE40151). […] Thus, the BLM model appears to be an appropriate model to determine the role of CD206 in lung fibrosis. […]
by different concentrations (0μM - 100μM) of RP-832c. […]

[1] = system: MRC5 human fetal lung fibroblast cell line; test: Cytotoxicity in lung fibroblasts MRC5; format: cell-based
Procedure: (§1) The RP-832c (RWKFGGFKWR) peptide was synthesized by PolyPeptide Laboratories, San Diego, CA, USA. BMDM cells were isolated and polarized as described previously. The cell viability of RP-832c-treated macrophages was determined using the live/dead viability assay as previously described. Human fetal lung fibroblast cell lines MRC5, IMR90, and IMR9 were purchased from the American Type Culture Collection (ATCC, Manassas, VA, USA) and were cultured according to ATCC protocols.
(§2) BMDM cells were isolated as described previously. Briefly, murine monocyte precursor cells were obtained by flushing out the bone marrow from the femur bones of 6–8-week-old healthy C57BL/6 mice. These precursor cells were then differentiated into M1 macrophages using 20 ng/mL of M-CSF and 20 ng/mL of IFN-γ and into M2 macrophages using 20 ng/mL of M-CSF and 20 ng/mL of IL-4 [29]. […]
(§3) Cell viability dose-response curves were determined using the Live/Dead Viability/Cytotoxicity Kit (Thermo Fisher Scientific, Waltham, MA, USA, Cat# L3224) using the manufacturer’s protocol. […] The images were taken and analyzed as described in the immunofluorescence assay section below. A total of 200 cells were counted manually from three different random 20× regions across three technical replicates, and the percentage of alive cells was calculated using GraphPad Prism version 8.0. […]

[2] = Toxicity study: body and organ weights, blood count, blood chemistry
[3] = matrix and method not stated; no reference given; cited from earlier work
Source text: It is evident from various studies that macrophages are indispensable in tissue repair and subsequent fibrotic changes. […] M1 macrophages initiate host defense responses against pathogens by generating reactive nitric oxide (NO) via inducible nitric oxide synthase (iNOS), and by releasing proinflammatory cytokines and chemokines such as IL-1β, IL-12, IL-23, CCL2, and TNF-α. Meanwhile, M2 macrophages contribute to the pathogenesis of fibrosis ...

[4] = system: M2-polarized bone marrow-derived macrophages (BMDM); format: cell-based, murine (C57BL/6 mice); details: 48 h
Procedure: (§4) BMDM cells were isolated as described previously. Briefly, murine monocyte precursor cells were obtained by flushing out the bone marrow from the femur bones of 6–8-week-old healthy C57BL/6 mice. These precursor cells were then differentiated into M1 macrophages using 20 ng/mL of M-CSF and 20 ng/mL of IFN-γ and into M2 macrophages using 20 ng/mL of M-CSF and 20 ng/mL of IL-4 [29]. Human fetal lung fibroblast cell lines MRC5, IMR90, and IMR9 were purchased from the American Type Culture Collection (ATCC, Manassas, VA, USA) and were cultured according to ATCC protocols.
(§5) Cell viability dose-response curves were determined using the Live/Dead Viability/Cytotoxicity Kit (Thermo Fisher Scientific, Waltham, MA, USA, Cat# L3224) using the manufacturer’s protocol. Macrophages were seeded onto glass-bottom 96-well plates and polarized into M1 or M2 populations. Cells were treated with different concentrations of RP-832c for 48 h. After drug treatment, a 100 μL mixture of 2 μM calcein-AM and 4 μM ethidium homodimer was added and incubated for 1 h. The images were taken and analyzed as described in the immunofluorescence assay section below. A total of 200 cells were counted manually from three different random 20× regions across three technical replicates, and the percentage of alive cells was calculated using GraphPad Prism version 8.0. […]

[5] = system: M1-polarized bone marrow-derived macrophages (BMDM); test: Live/Dead cell viability assay, M1 macrophages; format: cell-based, murine (C57BL/6 mice); details: 48 h, 0–100 μM
Procedure: as §4, §5

[6] = system: IMR9 human fetal lung fibroblast cell line; test: Cytotoxicity in lung fibroblasts IMR9 / IMR91; format: cell-based; details: 1μM - 100μM; three independent experiments in triplicate
Procedure: as §1, §2, §3

[7] = target: T1, CD206 (macrophage mannose receptor) (UniProt P22897); test: SPR
T1 chain: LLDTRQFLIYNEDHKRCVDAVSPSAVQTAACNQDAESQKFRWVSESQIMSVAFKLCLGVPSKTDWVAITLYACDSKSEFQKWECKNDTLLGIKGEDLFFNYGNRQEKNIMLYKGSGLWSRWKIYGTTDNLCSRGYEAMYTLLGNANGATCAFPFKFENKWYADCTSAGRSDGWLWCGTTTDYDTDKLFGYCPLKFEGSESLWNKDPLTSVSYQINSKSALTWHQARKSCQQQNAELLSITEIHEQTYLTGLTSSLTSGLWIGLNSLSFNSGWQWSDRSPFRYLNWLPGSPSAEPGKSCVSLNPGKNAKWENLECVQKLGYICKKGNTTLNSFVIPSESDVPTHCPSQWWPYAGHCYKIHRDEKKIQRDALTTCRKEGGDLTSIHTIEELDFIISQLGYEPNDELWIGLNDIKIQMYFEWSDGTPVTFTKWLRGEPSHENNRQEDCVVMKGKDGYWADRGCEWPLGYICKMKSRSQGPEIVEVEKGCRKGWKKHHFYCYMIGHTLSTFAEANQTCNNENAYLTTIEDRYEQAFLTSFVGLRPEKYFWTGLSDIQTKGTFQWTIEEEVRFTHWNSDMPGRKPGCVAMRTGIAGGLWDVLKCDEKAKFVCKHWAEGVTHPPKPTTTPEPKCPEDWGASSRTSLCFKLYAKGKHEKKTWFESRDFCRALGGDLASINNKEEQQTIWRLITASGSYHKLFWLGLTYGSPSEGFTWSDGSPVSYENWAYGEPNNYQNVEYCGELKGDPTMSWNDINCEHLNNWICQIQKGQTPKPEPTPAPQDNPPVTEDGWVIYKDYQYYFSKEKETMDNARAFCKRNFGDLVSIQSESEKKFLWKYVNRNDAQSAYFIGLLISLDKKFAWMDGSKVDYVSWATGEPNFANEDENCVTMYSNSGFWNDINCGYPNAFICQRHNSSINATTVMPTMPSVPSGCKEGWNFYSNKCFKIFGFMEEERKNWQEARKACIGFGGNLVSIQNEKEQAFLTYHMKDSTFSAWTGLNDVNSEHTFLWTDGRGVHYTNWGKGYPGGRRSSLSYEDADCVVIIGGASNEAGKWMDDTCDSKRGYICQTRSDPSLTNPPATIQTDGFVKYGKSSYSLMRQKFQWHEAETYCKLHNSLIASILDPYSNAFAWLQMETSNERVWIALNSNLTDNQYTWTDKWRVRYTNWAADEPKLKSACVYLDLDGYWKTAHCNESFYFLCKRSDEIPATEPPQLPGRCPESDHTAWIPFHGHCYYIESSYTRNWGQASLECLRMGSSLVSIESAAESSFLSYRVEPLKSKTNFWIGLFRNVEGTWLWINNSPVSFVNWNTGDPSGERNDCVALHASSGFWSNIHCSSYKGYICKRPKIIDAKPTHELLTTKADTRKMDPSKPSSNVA

## bleomycin
CD206 in lung tissue
  CD206 expression in lungs of BLM-treated mice (IHC): upregulated

## RWKFGGFKWR [RP-832c]
[1]; 1μM - 100μM, three independent experiments in triplicate
  cytotoxicity against MRC5 fibroblasts: did not show cytotoxicity; also recorded: lacking any cytotoxicity
[1]; multiple fibroblast cell lines cultured in vitro
  proliferation of fibroblast cell lines: did not observe any significant effect on the proliferation of multiple fibroblast cell lines; also recorded: did not observe direct inhibitory effects on the fibroblast cell lines
[2]; 50 mg/kg vs saline, p 0.1237
  AST, Mean Difference: −48.8
[2]; 50 mg/kg vs saline, p 0.2623
  Phosphorus, Mean Difference: -1.1 mg/dL
[2]; 50 mg/kg vs saline, p 0.3087
  BUN, Mean Difference: 1.6 mg/dL
[2]; 50 mg/kg vs saline, p 0.3982
  Albumin, Mean Difference: 0.2 g/dL
[2]; 50 mg/kg vs saline, p 0.4413
  Globulin, Mean Difference: 0.1 g/dL
[2]; 50 mg/kg vs saline, p 0.5797
  Total Protein, Mean Difference: 0.3 g/dL
[2]; 50 mg/kg vs saline, p not given
  Creatinine, Mean Difference: 0.0 mg/dL
[2]; 50mg/kg, CD1 mice, vs vehicle
  body weight: did not have any significant effect on body weight
[2]; 50 mg/kg, n = 10, saline n = 5: 0.2 ± 0
  Creatinine: 0.2 ± 0 mg/dL
[2]; 50 mg/kg, n = 10, saline n = 5: 2.6 ± 0.5
  Globulin: 2.7 ± 0.2 g/dL
[2]; 50 mg/kg, n = 10, saline n = 5: 2.9 ± 0.3
  Albumin: 3.1 ± 0.3 g/dL
[2]; 50 mg/kg, n = 10, saline n = 5: 5.6 ± 0.8
  Total Protein: 5.9 ± 0.5 g/dL
[2]; 50 mg/kg, n = 10, saline n = 5: 8.8 ± 2.4
  Phosphorus: 7.7 ± 0.5 mg/dL
[2]; 50 mg/kg, n = 10, saline n = 5: 22.4 ± 3.4
  BUN: 24.0 ± 4.3 mg/dL
[2]; 50 mg/kg, n = 10, saline n = 5: 35.8 ± 18.9
  ALT: 27.2 ± 10 U/L
[2]; 50 mg/kg, n = 10, saline n = 5: 140.0 ± 75.5
  AST: 91.2 ± 21.7 U/L
[2]; 50 mg/kg, vs vehicle
  body weight, organ weights, complete blood count and blood chemistry: no apparent toxicities observed; also recorded: No significant differences were observed
  complete blood cell count: does not significantly affect the complete blood cell count
  organ weights: lacks any significant
[3]
  half-life compared to RP-182: increased half-life compared to RP-182
  stability compared to RP-182: enhanced stability
[4]
  IC50: ~6 µM
[5]
  cytotoxicity in M1 macrophages: only minimal cytotoxicity
[6]
  cytotoxicity against IMR9 (IMR91) fibroblasts: did not show cytotoxicity; also recorded: lacking any cytotoxicity

B1: RP-832c (peptide)
chain: RWKFGGFKWR
[7]
  Kd: ~3.5 µM

— PMC10177262, “A Novel CD206 Targeting Peptide Inhibits Bleomycin-Induced Pulmonary Fibrosis in Mice” (Cells, 2023)
